Source: BindingDB's records for PubMed 34214508 (Roche Innovation Center Shanghai, 2021)

Experiment: Inhibition of mouse TNF-alpha in mouse L929 cells incubated for 18 hrs by CellTitreGlo assay

IC50: 125 nM
Compound: Cc1ccc(C)c(Cn2c(C(O)c3ccncc3)nc3ccc(-c4cnn(C)c4)cc32)c1 (stereo unspecified)
